Assay: in vitro
Details: human, hela cells, % viability

Compound	viability at 28.5 h, 10 µM [%]	viability at 28.5 h, 10 µM (bulk resorufin, single well) [%]
Cc1ccc(S(=O)(=O)Oc2c(C=C3C(=O)CC(C)(C)CC3=O)[nH]c3ccccc23)cc1 [CBK263464]	94.4	–
CCOc1cc(C=C2C(=O)NC(=S)NC2=O)ccc1OCc1c(C)no[n+]1[O-] [CBK263468]	–	99.3
C1=CCC(CN2CCN(C3CCN(Cc4ccccc4)CC3)CC2)CC1 (stereo not shown) [CBK263469]	91.6	–
Nc1nnc(CSCc2ccc(Cl)cc2Cl)s1 [CBK263471]	100	–
CC1=NN(c2ccc(S(N)(=O)=O)cc2)C(=O)/C1=C\c1ccc(-c2ccc(S(N)(=O)=O)cc2)o1 [CBK263476]	97.4	–
O=C(O)CCC(=O)Nc1ccc(NC(=O)c2ccccc2)c(Cl)c1 [CBK263478]	86.8	–
COc1ccc(CN2CCN(C(=O)c3ccccc3F)CC2)cc1OCc1ccccc1 [CBK263479]	80.7	–
CCN(CC)CCCN1C(=O)CSC1c1ccc2c(c1)OCO2 (stereo not shown) [CBK263482C]	102	–
CS(=O)(=O)N1CCN(C2CCN(Cc3ccccc3)CC2)CC1 [CBK263485]	95.9	–
O=[N+]([O-])c1cc(Br)cc(/C=N/Nc2nc3ccccc3[nH]2)c1O [CBK263486]	89.1	–
O=P(Nc1ccc(Cl)c(Cl)c1)(Nc1ccc(Cl)c(Cl)c1)Oc1ccc(Cl)cc1 [CBK263487]	–	93.2
O=C(CSc1n[nH]c(=O)[nH]c1=O)N/N=C/c1ccc(O)cc1 [CBK263488]	95.4	–
NNC(=O)Cn1c(-c2ccccn2)nc2ccccc21 [CBK263489]	108	–
COc1ccc(C2=NN(CN3C(=O)C(=O)c4cc(Br)ccc43)C(c3cccc([N+](=O)[O-])c3)C2)cc1 (stereo not shown) [CBK263490]	119	–
CCC(=O)Nc1nc2ccccc2n1CCCN(C)C [CBK263492]	102	–
Cc1cccc(C(=O)NCCc2nc3ccccc3[nH]2)c1 [CBK263493]	100	–
CCC(=O)NNC(=O)c1cc(O)nc2ccccc12 [CBK263495]	98.1	–
COc1ccc(OC)c(NC(=O)COc2ccc(C(C)C)cc2)c1 [CBK263498]	114	–
NS(=O)(=O)c1ccc(CCNC2CC(=O)N(CCc3ccccc3)C2=O)cc1 (stereo not shown) [CBK263502]	93.4	–
Cc1c(C)[n+]([O-])c2cc(N3CCN(C)CC3)c(Cl)cc2[n+]1[O-] [CBK263503]	96.3	–
CN1C(=O)/C(=C2\SC(=S)N(C(Cc3ccccc3)C(=O)O)C2=O)c2ccccc21 (stereo not shown) [CBK263507]	99.6	–
O=C(CSc1n[nH]c(=O)[nH]c1=O)N/N=C/c1cccs1 [CBK263508]	98.9	–

Compound	viability at 28.5 h, 10 µM [%]	viability at 28.5 h, 10 µM (bulk resorufin, single well) [%]
CC(=O)Nc1ccc(/C(C)=N\NC(=O)CCN2CCCCC2)cc1 [CBK263509]	95.9	–
Cc1ccc(OCC(=O)NNC(=O)C2COc3ccccc3O2)cc1 (stereo not shown) [CBK263511]	95.4	–
O=C(Nc1ccccc1C(=O)N1CCN(Cc2ccccc2)CC1)c1ccccn1 [CBK263512]	106	–
COc1cc(/C=N/NC(=O)CSc2n[nH]c(=O)[nH]c2=O)ccc1O [CBK263513]	88.7	–
O=C(NCCc1nc2ccccc2[nH]1)c1cccc(Cl)c1 [CBK263514]	100	–
CCN1C(=O)/C(=C\NN=C2CCCC2)c2ccc(C3=NNC(=O)CC3)cc21 [CBK263515]	88.1	–
CCN(CC)CCNC1=Nc2ccccc2CCC1 [CBK263520]	94.7	–
O=C1Nc2ccc(Br)cc2/C1=C1/SC(=S)N(C(Cc2ccccc2)C(=O)O)C1=O (stereo not shown) [CBK263521]	95.6	–
CC(Nc1n[nH]c(=O)[nH]c1=O)C(=O)N/N=C/c1ccccc1O (stereo not shown) [CBK263526]	91.7	–
COc1cc(/C=N/NC(=O)CSc2n[nH]c(=O)[nH]c2=O)cc(OC)c1O [CBK263527]	92.9	–
O=C(O)c1cc(NC(=O)c2cccc(Oc3ccc([N+](=O)[O-])cc3)c2)cc(C(=O)O)c1 [CBK263528]	80.8	–
O=C(CNc1n[nH]c(=O)[nH]c1=O)N/N=C/c1ccc(C(=O)O)cc1 [CBK263529]	96.2	–
O=C(O)CCCC(=O)NNC(=O)c1cccc(Br)c1 [CBK263530]	99.9	–
CC1=C(C)CC(C(=O)Nc2ccc3c(c2)oc2ccccc23)C(C(=O)O)C1 (stereo not shown) [CBK263533]	102	–
CC(=O)Nc1ccc(NC(=O)C2C3CCC(C3)C2C(=O)O)cc1 (stereo not shown) [CBK263534]	93.9	–
O=C(Cn1cc(/C=C2/C(=O)NC(=S)N(c3ccc(Cl)cc3)C2=O)c2ccccc21)Nc1ccccc1 [CBK263535]	–	98.4
S=C1NCN(Cc2ccccc2)CN1c1ccccc1 [CBK263536]	91.3	–
O=C(NCCNc1ccc(Cl)cc1[N+](=O)[O-])c1ccccc1Br [CBK263538]	102	–
Cc1cc(C)nc(Nc2nc3ccccc3[nH]2)n1 [CBK263539]	102	–
Cc1ccc(C(=O)Nc2ccccc2C(=O)NC(C)C(=O)O)cc1 (stereo not shown) [CBK263540]	93.9	–
COCc1cc(CN2CCN(C)CC2)c(O)c2ncccc12 [CBK263546]	85.1	–
Cc1ccc(OCC(=O)Nc2sc3c(c2C#N)CCCC3)cc1 [CBK263548]	109	–

Compound	viability at 28.5 h, 10 µM [%]	viability at 28.5 h, 10 µM (bulk resorufin, single well) [%]
CSc1nc2ccc(NC(=O)CSc3nnnn3-c3ccccc3)cc2s1 [CBK263549]	88.3	–
Oc1ccc(Nc2nc3nonc3nc2Nc2ccccc2)cc1 [CBK263551]	94	–
O=C(CSc1ccccn1)Nc1ccccc1-c1ccccc1 [CBK263553]	90.6	–
COc1ccccc1C(=O)O/N=C1/CCCc2c1ccc(OC)c2[N+](=O)[O-] [CBK263555]	102	–
CCCc1c(C)nc2ccccc2c1SCC(=O)O [CBK263558]	93.7	–
Cc1ccc(C(=O)Nc2ccccc2C(=O)N2CCN(Cc3ccccc3)CC2)cc1 [CBK263560]	94	–
CCOc1cccc(N2C(=O)CC(N3CCC(C(N)=O)(N4CCCCC4)CC3)C2=O)c1 (stereo not shown) [CBK263562]	99	–
Cc1ccc(SCCNS(=O)(=O)c2ccc(C)cc2)cc1 [CBK263564]	108	–
Cc1ccc(S(=O)(=O)NCCSc2ccccn2)cc1[N+](=O)[O-] [CBK263566]	82.5	–
Cc1ccc(S(=O)(=O)N(CC(O)CN2CCCCC2)c2ccccc2)cc1 (stereo not shown) [CBK263570]	97.7	–
Cc1ccc(S(=O)(=O)N(CC(O)CN2C(=O)NC(C)(C)C2=O)c2ccccc2[N+](=O)[O-])cc1 (stereo not shown) [CBK263572]	95.3	–
COc1cc(NC(=O)c2nn3c(c2Br)NC(c2cccs2)CC3C(F)(F)F)c(OC)cc1Cl (stereo not shown) [CBK263573]	93.1	–
c1ccc(CN(Cc2ccccc2)Cn2c3ccccc3c3ccccc32)cc1 [CBK263575]	93.6	–
CC(=O)Nc1ccc(S(=O)(=O)NCCSc2ccccn2)cc1 [CBK263576]	90.1	–
O=[N+]([O-])c1cc(C(F)(F)F)ccc1NCCNC(=S)Nc1ccc(Cl)cc1 [CBK263578]	92.9	–
Cc1ccc(N(CC(O)CN2C(=O)NC(C)(C)C2=O)S(=O)(=O)c2ccccc2)cc1 (stereo not shown) [CBK263580]	99.2	–
COc1ccccc1N(CC(O)CN1C(=O)NC(C)(C)C1=O)S(=O)(=O)c1ccc(C)cc1 (stereo not shown) [CBK263581]	99.4	–
Oc1ccc2ccccc2c1Cc1c(O)ccc2ccccc12 [CBK263583]	72.9	–
O=C(NC(Nc1cccc(C(F)(F)F)c1)C(=O)c1ccccc1)c1ccc(Cl)cc1 (stereo not shown) [CBK263585]	89.5	–
[O-][n+]1c2c([n+]([O-])c3c1CCCC3)CCCCC2 [CBK263586]	95.5	–
O=C(c1ccc(S(=O)(=O)N2CCCC2)cc1)N1CCN(C/C=C/c2ccccc2)CC1 [CBK263587]	103	–
Cc1cc(C)cc(N2C(=O)NC(=O)/C(=C\c3ccccc3Br)C2=O)c1 [CBK263588]	–	100

Compound	viability at 28.5 h, 10 µM [%]	viability at 28.5 h, 10 µM (bulk resorufin, single well) [%]
O=C(NCc1ccc2c(c1)OCO2)c1ccc(S(=O)(=O)N2CCCC2)cc1 [CBK263590]	108	–
COc1ccc(N2C(=O)CC(NCCNc3ccc([N+](=O)[O-])cn3)C2=O)cc1 (stereo not shown) [CBK263593]	85.3	–
O=C(COc1ccccc1)Nc1ccccc1CO [CBK263596]	97.9	–
O=C(O)CCC(NC(=O)c1ccc(Cl)cc1)C(=O)O (stereo not shown) [CBK263597]	94.2	–
O=C(COc1ccc2ccccc2c1)Nc1ccc(Cl)cc1Cl [CBK263598]	106	–
Cc1ccc(OCC(=O)Nc2ccccc2CO)cc1 [CBK263600]	88.7	–
COC(=O)CC(C)(C)/C(C)=N/NS(=O)(=O)c1ccc(C)cc1 [CBK263602]	86.7	–
O=C(O)c1ccc(N2C(=O)c3ccc(Oc4ccc(S(=O)(=O)c5ccc(C(=O)O)cc5)cc4)cc3C2=O)cc1 [CBK263603]	96.8	–
O=C(COc1cccc([N+](=O)[O-])c1)Nc1cc(C(=O)O)cc(C(=O)O)c1 [CBK263604]	114	–
N=C1NC(=O)/C(=C/c2ccc(OS(=O)(=O)c3ccc4ccccc4c3)cc2)S1 [CBK263605]	106	–
O=C(O)c1ccc(S(=O)(=O)c2ccc(Oc3ccc4c(c3)C(=O)N(c3cccc(C(=O)O)c3)C4=O)cc2)cc1 [CBK263608]	96.7	–
COc1cc(/C=C2\SC(=N)NC2=O)cc(Br)c1OS(=O)(=O)c1ccc(C)cc1 [CBK263609]	95.1	–
N=C1NC(=O)/C(=C/c2cccc(OCc3cccc4ccccc34)c2)S1 [CBK263610]	93.9	–
CC1=NN(c2ccc(S(N)(=O)=O)cc2)C(=O)/C1=C\c1ccc(-c2ccc(Cl)c([N+](=O)[O-])c2)o1 [CBK263612]	98.8	–
O=C(/C=C/c1ccc([N+](=O)[O-])cc1)Nc1ccc(O)cc1C(=O)O [CBK263613]	81	–
CCOc1cc(C=C2C(=O)NC(=O)NC2=O)ccc1OS(=O)(=O)c1ccc([N+](=O)[O-])cc1 [CBK263614]	–	82.9
O=C(/C=C/c1cccc([N+](=O)[O-])c1)Nc1ccc(O)cc1C(=O)O [CBK263615]	87.3	–
CC(NC(=O)/C(=C\c1ccc(Cl)cc1)NC(=O)c1ccco1)C(=O)O (stereo not shown) [CBK263617]	93	–
Cc1nc(SCC(=O)O)nc(O)c1Oc1ccccc1 [CBK263621]	103	–
